{"source": "patent US10792281B2", "about": "(priority 2014, dated 2020)", "origin": "cited, not measured here", "key": {"[1]": {"conditions": "in vivo"}, "[2]": {"conditions": "human, in vivo"}, "[3]": {"test_system": "nuclear factor kappa-B (NF-kB) and activator protein-1 (AP-1) activity"}, "[4]": {"test": "not given", "remark": "listed apart in the source"}}, "note": "Like-named read-outs stand apart in the source and are kept apart here."}
{"smiles": "CC(C)(O)c1ccccc1CC[C@@H](SCC1(CC(=O)O)CC1)c1cccc(/C=C/c2ccc3ccc(Cl)cc3n2)c1", "note": "[montelukast]", "values": [{"measurement": "time to peak plasma concentration", "setting": "[1]", "result": "3 to 4", "unit": "h"}, {"measurement": "effect of food on oral bioavailability and Cmax", "setting": "[1]; po", "result": "not affected by a standard meal"}, {"measurement": "AUC range", "setting": "[1]; po, 10 mg", "result": "1521 to 4595", "unit": "ng/h/mL"}, {"measurement": "mean AUC", "setting": "[1]; po, 10 mg", "result": 2689, "unit": "ng/h/mL"}, {"measurement": "doses without clinically relevant side effects", "setting": "[2]", "result": "up to 200 mg/day"}, {"measurement": "drug interactions", "setting": "[2]; po", "result": "no drug interactions"}]}
{"smiles": "Clc1ccc2c(c1)CCc1cccnc1C2=C1CCNCC1", "note": "[Desloratadine, desloratadine]", "values": [{"measurement": "half-life", "setting": "in vivo", "result": 27, "unit": "h"}, {"measurement": "half-life", "setting": "slow metabolizers", "result": "> 50", "unit": "h"}]}
{"smiles": "CN(c1nccc(=O)[nH]1)C1CCN(c2nc3ccccc3n2Cc2ccc(F)cc2)CC1", "note": "[mizolastine]", "values": [{"measurement": "bioavailability", "setting": "in vivo", "result": "high"}]}
{"smiles": "CN(C)CCOC(c1ccccc1)c1ccccc1", "note": "[Diphenhydramine, diphenhydramine]", "values": [{"measurement": "effect on AP-1 and NF-kB activity / RANTES production", "setting": "[3]", "result": "ineffective"}]}
{"smiles": "O=C(O)COCCN1CCN([C@H](c2ccccc2)c2ccc(Cl)cc2)CC1", "note": "[levocetirizine]", "values": [{"measurement": "HRV-induced ICAM-1, cytokine expression, and viral replication", "setting": "human rhinovirus (HRV); airway epithelial cells from both the nose and lung", "result": "inhibit"}, {"measurement": "decrease of viral titers", "setting": "human rhinovirus (HRV); in vitro, e.g. rhinovirus", "result": 2, "unit": "log"}, {"measurement": "peak concentration", "setting": "[4]; repeated 5 mg once daily oral dose", "result": 308, "unit": "ng/mL"}, {"measurement": "peak concentration", "setting": "[4]; single 5 mg oral dose", "result": 270, "unit": "ng/mL"}, {"measurement": "doses that can be safely administered", "setting": "[2]", "result": "up to 30 mg/day"}]}
